Test results published in US11319299B2, “Substituted carboxamides as inhibitors of WDR5 protein-protein binding” (PROPELLON THERAPEUTICS INC., priority 2016, dated 2022).

biological target: WDR5 (Homo sapiens (Human), UniProt P61964); experiment: Surface Plasmon Resonance (SPR) assay, KD and residence time; type: binding; conditions: surface plasmon resonance (SPR); read-out: WDR5 binding affinity (KD)

Row | Compound | Kd [nM]
1 | C[C@@H]1CN(c2cc(F)c(-c3ccc4c(c3)ncn4C)cc2NC(=O)c2c[nH]c(=O)cc2C(F)(F)F)C[C@H](C)N1C [Example 675, N-[4-fluoro-5-(1-methylbenzimidazol-5-yl)-2-[(3R,5S)-3,4,5-trimethylpiperazin-1-yl]phenyl]-6-oxo-4-(trifluoromethyl)-1H-pyridine-3-carboxamide] | 1.97
2 | C[C@@H]1CN(c2cc(F)c(-c3ccc4ncn(C)c4c3)cc2NC(=O)c2c[nH]c(=O)cc2C(F)(F)F)C[C@H](C)N1C [Example 676, N-[4-fluoro-5-(3-methylbenzimidazol-5-yl)-2-[(3R,5S)-3,4,5-trimethylpiperazin-1-yl]phenyl]-6-oxo-4-(trifluoromethyl)-1H-pyridine-3-carboxamide] | 4.39
3 | C[C@@H]1CN(c2cc(F)c(-c3cccc4scnc34)cc2NC(=O)c2c[nH]c(=O)cc2C(F)(F)F)C[C@H](C)N1C [Example 677, N-[5-(1,3-benzothiazol-4-yl)-4-fluoro-2-[(3R,5S)-3,4,5-trimethylpiperazin-1-yl]phenyl]-6-oxo-4-(trifluoromethyl)-1H-pyridine-3-carboxamide] | 5.29
4 | C[C@@H]1CN(c2cc(F)c(-c3ccc4scnc4c3)cc2NC(=O)c2c[nH]c(=O)cc2C(F)(F)F)C[C@H](C)N1C [Example 678, N-[5-(1,3-benzothiazol-5-yl)-4-fluoro-2-[(3R,5S)-3,4,5-trimethylpiperazin-1-yl]phenyl]-6-oxo-4-(trifluoromethyl)-1H-pyridine-3-carboxamide] | 3.26
5 | C[C@@H]1CN(c2cc(F)c(-c3ccc4ncsc4c3)cc2NC(=O)c2c[nH]c(=O)cc2C(F)(F)F)C[C@H](C)N1C [Example 679, N-[5-(1,3-benzothiazol-6-yl)-4-fluoro-2-[(3R,5S)-3,4,5-trimethylpiperazin-1-yl]phenyl]-6-oxo-4-(trifluoromethyl)-1H-pyridine-3-carboxamide] | 2.97
6 | C[C@@H]1CN(c2cc(F)c(-c3ccc4c(c3)ncn4C)cc2NC(=O)c2cn(C)c(=O)cc2C(F)F)C[C@H](C)N1C [Example 680, 4-(difluoromethyl)-N-[4-fluoro-5-(1-methylbenzimidazol-5-yl)-2-[(3R,5S)-3,4,5-trimethylpiperazin-1-yl]phenyl]-1-methyl-6-oxopyridine-3-carboxamide] | 58.2
7 | C[C@@H]1CN(c2cc(F)c(-c3ccc4ncn(C)c4c3)cc2NC(=O)c2cn(C)c(=O)cc2C(F)F)C[C@H](C)N1C [Example 681, 4-(difluoromethyl)-N-[4-fluoro-5-(3-methylbenzimidazol-5-yl)-2-[(3R,5S)-3,4,5-trimethylpiperazin-1-yl]phenyl]-1-methyl-6-oxopyridine-3-carboxamide] | 39.3
8 | C[C@@H]1CN(c2cc(F)c(-c3cccc4scnc34)cc2NC(=O)c2cn(C)c(=O)cc2C(F)F)C[C@H](C)N1C [Example 682, N-[5-(1,3-benzothiazol-4-yl)-4-fluoro-2-[(3R,5S)-3,4,5-trimethylpiperazin-1-yl]phenyl]-4-(difluoromethyl)-1-methyl-6-oxopyridine-3-carboxamide] | 20.4
9 | C[C@@H]1CN(c2cc(F)c(-c3ccc4scnc4c3)cc2NC(=O)c2cn(C)c(=O)cc2C(F)F)C[C@H](C)N1C [Example 683, N-[5-(1,3-benzothiazol-5-yl)-4-fluoro-2-[(3R,5S)-3,4,5-trimethylpiperazin-1-yl]phenyl]-4-(difluoromethyl)-1-methyl-6-oxopyridine-3-carboxamide] | 12.3
10 | C[C@@H]1CN(c2cc(F)c(-c3ccc4ncsc4c3)cc2NC(=O)c2cn(C)c(=O)cc2C(F)F)C[C@H](C)N1C [Example 684, N-[5-(1,3-benzothiazol-6-yl)-4-fluoro-2-[(3R,5S)-3,4,5-trimethylpiperazin-1-yl]phenyl]-4-(difluoromethyl)-1-methyl-6-oxopyridine-3-carboxamide] | 7.82
11 | C[C@@H]1CN(c2cc(F)c(C3=CCN(c4ncc(C#N)s4)CC3)cc2NC(=O)c2c[nH]c(=O)cc2C(F)F)C[C@H](C)N1C [Example 685, N-[5-[1-(5-cyano-1,3-thiazol-2-yl)-3,6-dihydro-2H-pyridin-4-yl]-4-fluoro-2-[(3R,5S)-3,4,5-trimethylpiperazin-1-yl]phenyl]-4-(difluoromethyl)-6-oxo-1H-pyridine-3-carboxamide] | 2.23
12 | C[C@@H]1CN(c2cc(F)c(C3=CCCN(c4ncc(C#N)s4)C3)cc2NC(=O)c2c[nH]c(=O)cc2C(F)F)C[C@H](C)N1C [Example 687, N-[5-[1-(5-cyano-1,3-thiazol-2-yl)-3,6-dihydro-2H-pyridin-5-yl]-4-fluoro-2-[(3R,5S)-3,4,5-trimethylpiperazin-1-yl]phenyl]-4-(difluoromethyl)-6-oxo-1H-pyridine-3-carboxamide] | 1.84
13 | C[C@@H]1CN(c2cc(F)c(-c3ccnc(N4CCOCC4)n3)cc2NC(=O)c2c[nH]c(=O)cc2C(F)F)C[C@H](C)N1C [Example 692, 4-(difluoromethyl)-N-[4-fluoro-5-(2-morpholin-4-ylpyrimidin-4-yl)-2-[(3R,5S)-3,4,5-trimethylpiperazin-1-yl]phenyl]-6-oxo-1H-pyridine-3-carboxamide] | 2.4
14 | C[C@@H]1CN(c2cc(F)c(-c3ccnc(N4CCOCC4)n3)cc2NC(=O)c2cn(C)c(=O)cc2C(F)(F)F)C[C@H](C)N1C [Example 693, N-[4-fluoro-5-(2-morpholin-4-ylpyrimidin-4-yl)-2-[(3R,5S)-3,4,5-trimethylpiperazin-1-yl]phenyl]-1-methyl-6-oxo-4-(trifluoromethyl)pyridine-3-carboxamide] | 4.79
15 | C[C@@H]1CN(c2cc(F)c(-c3ccnc(OC4CCOCC4)n3)cc2NC(=O)c2c[nH]c(=O)cc2C(F)(F)F)C[C@H](C)N1C [Example 695, N-[4-fluoro-5-[2-(oxan-4-yloxy)pyrimidin-4-yl]-2-[(3R,5S)-3,4,5-trimethylpiperazin-1-yl]phenyl]-6-oxo-4-(trifluoromethyl)-1H-pyridine-3-carboxamide] | 2.53
16 | C[C@@H]1CN(c2cc(F)c(C3=CCN(c4ncc(C#N)s4)CC3)cc2NC(=O)c2c[nH]c(=O)cc2C(F)(F)F)C[C@H](C)N1C [Example 696, N-[5-[1-(5-cyano-1,3-thiazol-2-yl)-3,6-dihydro-2H-pyridin-4-yl]-4-fluoro-2-[(3R,5S)-3,4,5-trimethylpiperazin-1-yl]phenyl]-6-oxo-4-(trifluoromethyl)-1H-pyridine-3-carboxamide] | 1.31
17 | C[C@@H]1CN(c2cc(F)c(C3=CCCN(C(=O)OC4(C)CCC4)CC3)cc2NC(=O)c2c[nH]c(=O)cc2C(F)(F)F)C[C@H](C)N1C [Example 699, (1-methylcyclobutyl) 4-[2-fluoro-5-[[6-oxo-4-(trifluoromethyl)-1H-pyridine-3-carbonyl]amino]-4-[(3R,5S)-3,4,5-trimethylpiperazin-1-yl]phenyl]-2,3,6,7-tetrahydroazepine-1-carboxylate] | 3.7
18 | C[C@@H]1CN(c2cc(F)c(C3=CCCN(c4ncc(C#N)s4)CC3)cc2NC(=O)c2c[nH]c(=O)cc2C(F)(F)F)C[C@H](C)N1C [Example 700, N-[5-[1-(5-cyano-1,3-thiazol-2-yl)-2,3,6,7-tetrahydroazepin-4-yl]-4-fluoro-2-[(3R,5S)-3,4,5-trimethylpiperazin-1-yl]phenyl]-6-oxo-4-(trifluoromethyl)-1H-pyridine-3-carboxamide] | 7.31
19 | C[C@@H]1CN(c2cc(F)c(C3=CCCN(c4ccnc(C#N)n4)C3)cc2NC(=O)c2c[nH]c(=O)cc2C(F)(F)F)C[C@H](C)N1C [Example 701, N-[5-[1-(2-cyanopyrimidin-4-yl)-3,6-dihydro-2H-pyridin-5-yl]-4-fluoro-2-[(3R,5S)-3,4,5-trimethylpiperazin-1-yl]phenyl]-6-oxo-4-(trifluoromethyl)-1H-pyridine-3-carboxamide] | 1.73
20 | C[C@@H]1CN(c2cc(F)c(C3=CCN(C(=O)OC4CC(F)(F)C4)CC3)cc2NC(=O)c2c[nH]c(=O)cc2C(F)F)C[C@H](C)N1C [Example 702, (3,3-difluorocyclobutyl) 4-[5-[[4-(difluoromethyl)-6-oxo-1H-pyridine-3-carbonyl]amino]-2-fluoro-4-[(3R,5S)-3,4,5-trimethylpiperazin-1-yl]phenyl]-3,6-dihydro-2H-pyridine-1-carboxylate] | 3.47
21 | C[C@@H]1CN(c2cc(F)c(C3=CCCN(C(=O)OC4CC(F)(F)C4)C3)cc2NC(=O)c2c[nH]c(=O)cc2C(F)F)C[C@H](C)N1C [Example 704, (3,3-difluorocyclobutyl) 5-[5-[[4-(difluoromethyl)-6-oxo-1H-pyridine-3-carbonyl]amino]-2-fluoro-4-[(3R,5S)-3,4,5-trimethylpiperazin-1-yl]phenyl]-3,6-dihydro-2H-pyridine-1-carboxylate] | 2.72
22 | C[C@@H]1CN(c2cc(F)c(C3=CCN(c4ccnc(C#N)n4)CC3)cc2NC(=O)c2c[nH]c(=O)cc2C(F)(F)F)C[C@H](C)N1C [Example 709, N-[5-[1-(2-cyanopyrimidin-4-yl)-3,6-dihydro-2H-pyridin-4-yl]-4-fluoro-2-[(3R,5S)-3,4,5-trimethylpiperazin-1-yl]phenyl]-6-oxo-4-(trifluoromethyl)-1H-pyridine-3-carboxamide] | 0.72
23 | C[C@@H]1CN(c2cc(F)c(-c3cc(F)c(C(=O)NC4CCCCC4)c(F)c3)cc2NC(=O)c2c[nH]c(=O)cc2C(F)(F)F)C[C@H](C)N1C [Example 710, N-[5-[4-(cyclohexylcarbamoyl)-3,5-difluorophenyl]-4-fluoro-2-[(3R,5S)-3,4,5-trimethylpiperazin-1-yl]phenyl]-6-oxo-4-(trifluoromethyl)-1H-pyridine-3-carboxamide] | 2.03
24 | C[C@@H]1CN(c2cc(F)c(-c3cc(F)c(C(=O)NC4CCCCC4(C)C)c(F)c3)cc2NC(=O)c2c[nH]c(=O)cc2C(F)(F)F)C[C@H](C)N1C (stereo partly drawn) [Example 711, N-[5-[4-[(2,2-dimethylcyclohexyl)carbamoyl]-3,5-difluorophenyl]-4-fluoro-2-[(3R,5S)-3,4,5-trimethylpiperazin-1-yl]phenyl]-6-oxo-4-(trifluoromethyl)-1H-pyridine-3-carboxamide] | 3.17
